Experimental data: ChEMBL document CHEMBL1156829 (Proc Natl Acad Sci U S A, 2008)

What was measured:
[1] = NOVARTIS: Cytotoxicity against human hepatocellular carcinoma cell line (Huh7); assay type: toxicity, cell-based, Huh-7; conditions: Huh7 cells (hepatocellular carcinoma cell line)
[2] = test system: Plasmodium falciparum; experiment: NOVARTIS: Inhibition of Plasmodium falciparum 3D7 (drug-susceptible) proliferation in erythrocyte-based infection assay; assay type: functional, organism-based; conditions: Plasmodium falciparum, 3D7
[3] = test system: Plasmodium falciparum; experiment: NOVARTIS: Inhibition of Plasmodium falciparum W2 (drug-resistant) proliferation in erythrocyte-based infection assay; assay type: functional, organism-based; conditions: Plasmodium falciparum, W2; read-out: EC50

Row | SMILES | CC50 [1] | EC50 [2] | EC50 [3]
1 | Clc1ncnc2ncn(Cc3ccccc3)c12 | 58100 nM | 1650 nM | 1090 nM
2 | CCOC(=O)CN1C(=O)c2ccccc2Sc2ncccc21 | > 10000 nM | > 1120 nM | > 644 nM
3 | COc1ccc(NC(=O)N2CCN(C(=O)c3nc(-c4ccccc4)nc(C)c3C(=O)OC(C)C)CC2C)cc1 (configuration not stated) | > 10000 nM | 633 nM | 141 nM
4 | O=C(Cc1ccccc1)NC(c1ccc(Cl)cc1)c1ccc2cccnc2c1O (configuration not stated) | > 100000 nM | 209 nM | 337 nM
5 | COc1ccc(C2CC(=O)C3=C(C2)NC(C)=C(C(=O)OC(C)C)C3c2ccc(F)cc2)cc1 (configuration not stated) | > 100000 nM | 83.4 nM | 23.2 nM
6 | O=C(NCCCN1CCCCC1)c1ccc2c(c1)sc1nc(-c3ccc(F)cc3)cn12 | > 100000 nM | 694 nM | 870 nM
7 | CCc1ccccc1NC(C)=O | > 100000 nM | > 12500 nM | 5410 nM
8 | O=C(Nc1ccc(-c2nc3cc(NC(=O)c4cccs4)ccc3[nH]2)cc1)c1cccs1 | > 100000 nM | 1550 nM | 2010 nM
9 | CCOC(=O)c1c(N)n(-c2ccc(NC(=O)c3cccc([N+](=O)[O-])c3)cc2)c2nc3ccccc3nc12 | 19400 nM | 320 nM | 1740 nM
10 | COc1ccc(-n2c(COc3cccc4ccccc34)nnc2SC)cc1 | > 100000 nM | 524 nM | 236 nM
11 | NCC(c1ccc(F)cc1)c1ccc(F)cc1 | > 9210 nM | > 345 nM | 99.8 nM
12 | CCN(c1ccccc1)S(=O)(=O)c1ccc(F)c(C(=O)Nc2c(C)cccc2C)c1 | > 100000 nM | > 12500 nM | 2450 nM
13 | CN1C[C@@H](CSc2ccccn2)C=C2c3cccc4[nH]cc(c34)C[C@H]21 | > 10000 nM | 226 nM | 393 nM
14 | CC(C)CNC(=O)c1cnc(NCCCN2CCCCC2C)nc1NCC(C)C (configuration not stated) | > 10000 nM | 344 nM | 1460 nM
15 | CC(C)[C@@H](CO)Nc1ccnc2c(-c3ccccc3F)cnn12 | > 10000 nM | > 1250 nM | > 272 nM
16 | CCC1=NN2C(=N)/C(=C/c3cn(CCOc4cccc(C)c4)c4ccccc34)C(=O)N=C2S1 | > 10000 nM | > 1250 nM | > 572 nM
17 | O=C(NCCCCNc1ccnc2cc(Cl)ccc12)c1ccccc1Br | > 10000 nM | 468 nM | 494 nM

Row | SMILES | CC50 [1] | EC50 [2] | EC50 [3]
18 | CC[n+]1c(C)n(-c2ccccc2)c2ccc(C3Nc4ccccc4S3)cc21 (configuration not stated) | > 100000 nM | 1180 nM | 734 nM
19 | CC(C)(C)NC(=O)c1cn(C2CCCCC2)cc(C(=O)NC2CCN(Cc3ccccc3)C2)c1=O (configuration not stated) | > 10000 nM | 188 nM | < 12.8 nM
20 | c1ccc(Cn2c(N=Nc3c(Nc4ccccc4)ccc4ccccc34)nc3ccccc32)cc1 | 88000 nM | 2730 nM | 669 nM
21 | Cc1cc(C)cc(Nc2cc(C)nc3ncnn23)c1 | > 100000 nM | 1220 nM | 901 nM
22 | COc1ccc(C(=O)NC(c2ccccc2Cl)c2cc(Cl)c3cccnc3c2O)cc1 (configuration not stated) | > 87000 nM | 2370 nM | 833 nM
23 | CC[C@@H]1CN2CC[C@H]1C[C@H]2[C@H](O)c1ccnc2ccc(OC)cc12 | > 6250 nM | 103 nM | 298 nM
24 | COc1ccc(C2C(C(=O)Nc3cnc4ccccc4c3)c3ccccc3C(=O)N2Cc2ccc(F)cc2)cc1 (configuration not stated) | > 100000 nM | 2170 nM | 941 nM
25 | COc1ccc(/C=C2\SC(=N)N(c3ccc4c(c3)OCO4)C2=O)cc1OC | > 10000 nM | > 1720 nM | > 1060 nM
26 | CN(C)C=Nc1nn(C)cc1C(=O)Nc1ccc(F)c(Cl)c1 | > 100000 nM | > 7010 nM | 264 nM
27 | COc1ccc(S(=O)(=O)NCCCCNc2ccnc3cc(Cl)ccc23)cc1 | > 10000 nM | 345 nM | 484 nM
28 | COC(=O)c1ccccc1NC(=O)CSc1nc2ccsc2c(=O)n1CCN1CCCC1 | > 100000 nM | > 11200 nM | > 11200 nM
29 | O=c1c2ccccc2nc(C=Cc2ccc([N+](=O)[O-])o2)n1-c1ccc(Br)cc1 | > 100000 nM | > 12300 nM | 1920 nM
30 | COc1ccc2c(c1)c(C)cc[n+]2Cc1ccccc1 | 20700 nM | 86.2 nM | 118 nM
31 | COc1cc(Nc2nccn3c(-c4ccsc4)cnc23)cc(OC)c1OC | > 10000 nM | > 1250 nM | 1650 nM
32 | Cc1n[nH]c2c1C(c1ccc([N+](=O)[O-])cc1)N(c1ccc(Br)cc1)C2=O (configuration not stated) | > 100000 nM | > 12500 nM | > 6360 nM
33 | C=CCC1(Nc2ccccc2)CCCCC1 | > 10000 nM | > 1250 nM | > 1050 nM
34 | CC(C)(C)CC(C)(C)c1ccc(OCC(=O)NN=C2C(=O)Nc3ccccc32)c([N+](=O)[O-])c1 | > 10000 nM | > 1000 nM | 927 nM
